Source: PubChem BioAssay AID2060483 (Molecular Pharmacology Branch, DTP, NCI, 2025)
Values joined by “and” are separate entries in the source; they are usually repeats but may differ in a detail not shown here. Equal entries are not always repeated.

Tested on: K24384-001-R-PDC complex spheroids, viability
Assay: Anticancer human tumor K24384-001-R-PDC patient-derived pancreatic adenocarcinoma cell line growth inhibition [GQUAD]
Details: for viability, T/C: stronger effect = lower value
Source text: DNA G-quadruplex Stabilizer Agents in Combinations in Complex Spheroids
A high-throughput screen of multi-cell type tumor spheroids was designed to identify active combinations of DNA G-quadruplex stabilizer agents and targeted small molecules. Complex spheroids include a stromal component modeled by human endothelial cells (HUVEC) and fibroblasts modeled by human mesenchymal stem cells (MSCs). The concentration ranges selected for each drug and investigational agent were based upon clinically achievable concentrations if the clinical Cmax of the agent was known.
Compounds. The drugs and investigational agents: pidnarulex (CX-5461; NSC782164), APTO-253 (NSC789042), BRACO-19 (NSC847499), peposertib (NSC802822), ceralasertib (NSC780249), elimusertib (NSC800525), camonsertib (NSC841442), AZD-1390 (NSC803789), olaparib (NSC753686), talazoparib (NSC767125), ART-558 (NSC835418), sotorasib (NSC818433), MRTX-1133 (NSC836407), SN-38 (NSC673596), topotecan (NSC609699), etoposide (NSC141540), doxorubicin (NSC123127), gemcitabine (NSC613327), 5-fluorouracil (NSC19893), paclitaxel (NSC125973), vemurafenib (NSC761431), panobinostat (NSC761190), R-306465 (JNJ-16241199; NSC773264), adavosertib (NSC754352), TP-3654 (NSC805149), carboplatin (NSC241240), KSQ-4279 (NSC840948), and staurosporine (NSC755774) were obtained from the National Cancer Institute (NCI) Developmental Therapeutics Program Chemical Repository (34). The FDA-approved anticancer drug set is available from the NCI Developmental Therapeutics Program. […] The stock solutions were prepared in dimethyl sulfoxide (DMSO, Sigma-Aldrich, St. Louis, MO, cat. D2650) at 800-fold the tested concentration and stored at -70 degrees C prior to their use. All drugs and investigational agents were tested over a range starting from a high concentration at or near the clinical Cmax and decreasing in half-log increments. If the clinical Cmax for an agent had not been determined, the highest concentration tested was 10 microM.
2.3 Cell Culture. All cells were maintained in an incubator at 37 degrees C and 5% CO2 with 95% humidity. The PDC lines were cultured according to standard operating procedures established by the NCI PDMR. All PDCs were thawed and cultured in Matrigel-coated flasks prepared with a working solution of 1X Ham's F-12 nutrient mix, without supplementation (Invitrogen, cat. 11765054), 100 U/mL penicillin-streptomycin (Invitrogen, cat. 15140122), and 2.5% Matrigel (Corning Inc., cat. 354248) for the first three passages. The 857933-349-R-J2-PDC line was cultured in 6C/Colon 1B media, which includes advanced DMEM/F-12 (Thermo Fisher Scientific, cat. 12634028), 10 mM HEPES (Thermo Fisher Scientific, cat. 15630080), 1X GlutaMAX supplement (Thermo Fisher Scientific, cat. 35050061), 0.1 mg/mL primocin (InvivoGen, cat. ant-pm-2), 10% defined fetal bovine serum, heat inactivated (HyClone Laboratories Inc., cat. SH30070.03HI), 50% L-WRN conditioned media (ATCC, cat. CRL-3276), 1.25 mM N-Acetyl-L-cysteine (Sigma-Aldrich, cat. A9165), 10 mM nicotinamide (Sigma-Aldrich, cat. N0636), 1X B-27 supplement (Thermo Fisher Scientific, cat. 17504044), 1X N-2 supplement (Thermo Fisher Scientific, cat. 17502048), 10 microM Y-27632 dihydrochloride (Tocris Bioscience, cat. 1254), and 50 ng/mL human EGF recombinant protein (Thermo Fisher Scientific, cat. PHG0311). The 485176-168-R4-J1-PDC line was cultured in Panc media, which includes all 6C/Colon 1B media components plus 100 ng/mL human FGF-10 (Thermo Fisher Scientific, cat. 100-26), 500 nM SB-431542 (Selleckchem, cat. S1067), and gastrin (Tocris, cat. 3006).
[…]
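Note: spheroids exposed to compounds for seven days.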

`CCCS(=O)(=O)Nc1ccc(F)c(C(=O)c2c[nH]c3ncc(-c4ccc(Cl)cc4)cc23)c1F` was tested, and the viability, T/C (compound 0.0316 µM) was 99.8% and 109% and 105%, the viability, T/C (compound 0.1 µM) was 107% and 112% and 96.4% and the viability, T/C (compound 0.316 µM) was 128% and 125% and 130%. The viability, T/C (compound 1 µM) was 119% and 110% and 116%, the viability, T/C (compound 3.16 µM) was 137% and 147% and 123% and the viability, T/C (compound 10 µM) was 46.2% and 54.7% and 52.6%. The IC50 (curve of compound) was 9.4 µM and > 10 µM.
In the case of `COc1ncnc(C2CC2)c1-c1ncc2cnn(Cc3ccc(-c4nc(C(F)(F)F)cn4C(C)C)cc3)c2n1` + Cc1[nH]c2ccc(F)cc2c1-c1nc2c3cccnc3c3ncccc3c2[nH]1, the IC50 (curve of first compound, second compound 0.0316 µM) is reported as over 10 µM, the IC50 (curve of first compound, second compound 0.1 µM) is reported as over 10 µM and the IC50 (curve of first compound, second compound 0.316 µM) is reported as over 10 µM. For the same molecule, the IC50 (curve of first compound, second compound 1 µM) was over 10 µM, the IC50 (curve of first compound, second compound 3.16 µM) was over 10 µM and the IC50 (curve of first compound, second compound 10 µM) was over 10 µM. It also gave a viability, T/C (second compound 0.0316 µM, first compound 0.0316 µM) of 106%, a viability, T/C (second compound 0.0316 µM, first compound 0.1 µM) of 109% and a viability, T/C (second compound 0.0316 µM, first compound 0.316 µM) of 122%. The viability, T/C (second compound 0.0316 µM, first compound 1 µM) was 97.5%, the viability, T/C (second compound 0.0316 µM, first compound 3.16 µM) was 104% and the viability, T/C (second compound 0.0316 µM, first compound 10 µM) was 128%. For the same molecule, the viability, T/C (second compound 0.1 µM, first compound 0.0316 µM) was 98.4%, the viability, T/C (second compound 0.1 µM, first compound 0.1 µM) was 98.7% and the viability, T/C (second compound 0.1 µM, first compound 0.316 µM) was 103%. For the same molecule, the viability, T/C (second compound 0.1 µM, first compound 1 µM) was 85.5%, the viability, T/C (second compound 0.1 µM, first compound 3.16 µM) was 122% and the viability, T/C (second compound 0.1 µM, first compound 10 µM) was 134%. The viability, T/C (second compound 0.316 µM, first compound 0.0316 µM) was 90.8%, the viability, T/C (second compound 0.316 µM, first compound 0.1 µM) was 107% and the viability, T/C (second compound 0.316 µM, first compound 0.316 µM) was 107%. For the same molecule, the viability, T/C (second compound 0.316 µM, first compound 1 µM) was 95.6%, the viability, T/C (second compound 0.316 µM, first compound 3.16 µM) was 96.7% and the viability, T/C (second compound 0.316 µM, first compound 10 µM) was 118%. For the same molecule, the viability, T/C (second compound 1 µM, first compound 0.0316 µM) was 86.3%, the viability, T/C (second compound 1 µM, first compound 0.1 µM) was 96.8% and the viability, T/C (second compound 1 µM, first compound 0.316 µM) was 95.8%. The viability, T/C (second compound 1 µM, first compound 1 µM) was 104%, the viability, T/C (second compound 1 µM, first compound 3.16 µM) was 95.2% and the viability, T/C (second compound 1 µM, first compound 10 µM) was 95.7%. For the same molecule, the viability, T/C (second compound 3.16 µM, first compound 0.0316 µM) was 81.8%, the viability, T/C (second compound 3.16 µM, first compound 0.1 µM) was 89.3% and the viability, T/C (second compound 3.16 µM, first compound 0.316 µM) was 73.2%. For the same molecule, the viability, T/C (second compound 3.16 µM, first compound 1 µM) was 88.7%, the viability, T/C (second compound 3.16 µM, first compound 3.16 µM) was 95.1% and the viability, T/C (second compound 3.16 µM, first compound 10 µM) was 84.1%. For the same molecule, the viability, T/C (second compound 10 µM, first compound 0.0316 µM) was 72.5%, the viability, T/C (second compound 10 µM, first compound 0.1 µM) was 102% and the viability, T/C (second compound 10 µM, first compound 0.316 µM) was 64.3%. For the same molecule, the viability, T/C (second compound 10 µM, first compound 1 µM) was 73.1%, the viability, T/C (second compound 10 µM, first compound 3.16 µM) was 96.1% and the viability, T/C (second compound 10 µM, first compound 10 µM) was 75.5%.
In the case of `CC(=O)O[C@H]1C(=O)[C@@]2(C)[C@H]([C@H](OC(=O)c3ccccc3)[C@]3(O)C[C@H](OC(=O)[C@H](O)[C@@H](NC(=O)c4ccccc4)c4ccccc4)C(C)=C1C3(C)C)[C@]1(OC(C)=O)CO[C@@H]1C[C@@H]2O`, the viability, T/C (compound 0.0316 µM) is reported as 33.8% and 31.3% and 53.9%, the viability, T/C (compound 0.1 µM) is reported as 25.3% and 22% and 20.2% and the viability, T/C (compound 0.316 µM) is reported as 23.4% and 18.5% and 29.6%. For the same molecule, the viability, T/C (compound 1 µM) was 20.5% and 21.1% and 28.1%, the viability, T/C (compound 3.16 µM) was 25.6% and 20.9% and 26.2% and the viability, T/C (compound 10 µM) was 28.5% and 28.9% and 37.3%. It also gave an IC50 (curve of compound) of under 0.0316 µM.
In the case of `O=C(NO)c1cnc(N2CCN(S(=O)(=O)c3ccc4ccccc4c3)CC2)nc1`, the viability, T/C (compound 0.0316 µM) is reported as 110% and 91.7% and 116%, the viability, T/C (compound 0.1 µM) is reported as 81% and 99.9% and 83.9% and the viability, T/C (compound 0.316 µM) is reported as 66.6% and 72.7% and 68.1%. For the same molecule, the viability, T/C (compound 3.16 µM) was 0.26% and 0.27% and 0.09%, the viability, T/C (compound 10 µM) was 0.25% and 0.26% and 0.14% and the IC50 (curve of compound) was 0.431 µM and 0.571 µM and 0.42 µM.
